Laboratory results from patent publication US9096560B2, “5-heterocyclylalkyl-3-hydroxy-2-phenylcyclopent-2-enones as herbicides” (Syngenta Limited, priority 2008, dated 2015).

Assays:
Format in all cases: in vivo
[1] = system: Lolium perenne (LOLPE); assay: Example B pre-emergence herbicidal test, LOLPE; settings: Lolium perenne, 312 h, rate 250 g/ha, evaluated after 13 days, 100=total damage to plant, 0=no damage to plant
Method in brief: (§1)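 After sowing in standard soil, pots spent a day in the glasshouse (24/16° C, 14 h photoperiod, 65% humidity) before spraying with compound in acetone/water 50:50 with 0.5% Tween 20. Watering followed twice a day, and plants were evaluated 13 days on, with 100 meaning complete damage.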

[2] = system: Alopecurus myosuroides (ALOMY); assay: Example B pre-emergence herbicidal test, ALOMY; settings: Alopecurus myosuroides, 312 h, rate 250 g/ha, evaluated after 13 days, 100=total damage to plant, 0=no damage to plant
Method in brief: as §1

[3] = system: Echinochloa crus-galli (ECHCG); assay: Example B pre-emergence herbicidal test, ECHCG; settings: Echinochloa crus-galli, 312 h, rate 250 g/ha, evaluated after 13 days, 100=total damage to plant, 0=no damage to plant
Method in brief: as §1

[4] = system: Avena fatua (AVEFA); assay: Example B pre-emergence herbicidal test, AVEFA; settings: Avena fatua, 312 h, rate 250 g/ha, evaluated after 13 days, 100=total damage to plant, 0=no damage to plant
Method in brief: as §1

[5] = system: Lolium perenne (LOLPE); assay: Example B post-emergence herbicidal test, LOLPE; settings: Lolium perenne, 312 h, rate 250 g/ha, evaluated after 13 days, scale 0-100, read-out: Post-emergence activity LOLPE (100=total damage to plant; 0=no damage to plant)
Method in brief: (§2)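 Foliar application to 8-day-old pot-grown seedlings in a glasshouse (24/16 °C, 14 h photoperiod, 65% humidity). Spray solution was derived from an acetone/water (50:50) formulation with 0.5% Tween 20. Injury was assessed 13 days later on a 0–100 scale.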

[6] = system: Alopecurus myosuroides (ALOMY); assay: Example B post-emergence herbicidal test, ALOMY; settings: Alopecurus myosuroides, 312 h, rate 250 g/ha, evaluated after 13 days, scale 0-100, read-out: Post-emergence activity ALOMY (100=total damage to plant; 0=no damage to plant)
Method in brief: as §2

[7] = system: Echinochloa crus-galli (ECHCG); assay: Example B post-emergence herbicidal test, ECHCG; settings: Echinochloa crus-galli, 312 h, rate 250 g/ha, evaluated after 13 days, scale 0-100, read-out: Post-emergence activity ECHCG (100=total damage to plant; 0=no damage to plant)
Method in brief: as §2

[8] = system: Avena fatua (AVEFA); assay: Example B post-emergence herbicidal test, AVEFA; settings: Avena fatua, 312 h, rate 250 g/ha, evaluated after 13 days, scale 0-100, read-out: Post-emergence activity AVEFA (100=total damage to plant; 0=no damage to plant)
Method in brief: as §2

| SMILES | pest or weed control at 250 g/ha [1] | pest or weed control at 250 g/ha [2] | pest or weed control at 250 g/ha [3] | pest or weed control at 250 g/ha [4] | pest or weed control at 250 g/ha [5] | pest or weed control at 250 g/ha [6] | pest or weed control at 250 g/ha [7] | pest or weed control at 250 g/ha [8] |
| --- | --- | --- | --- | --- | --- | --- | --- | --- |
| Cc1cc(-c2ccccc2F)cc(C)c1C1C(=O)CC(CC2CCOCC2)C1=O (centres unmarked) [Compound T139] | 80% | 70% | 90% | 60% | 90% | 90% | 100% | 90% |
| CCCCS(=O)(=O)N1CCC(CC2CC(=O)C(c3c(C)cc(C)cc3C)C2=O)CC1 (centres unmarked) [Compound T96] | 60% | 20% | 20% | 10% | 60% | 60% | 40% | 40% |
| Cc1cc(C)c(C2C(=O)CC(CC3CCN(C(=O)c4cccs4)CC3)C2=O)c(C)c1 (centres unmarked) [Compound T110] | 50% | 30% | 70% | 30% | 50% | 30% | 40% | 80% |
| CC(=O)N1CCCCC1/C=C1\CC(=O)C(c2c(C)cc(C)cc2C)C1=O (centres unmarked) [Compound T46] | 10% | 50% | 10% | 10% | 40% | 60% | 60% | 50% |
| Cc1cc(C)c(C2=C(OC(=O)C3CCCCC3)CC(CC3CCOC3)C2=O)c(C)c1 (centres unmarked) [Compound P15] | 100% | 100% | 100% | 90% | 100% | 100% | 100% | 90% |
| Cc1cc(-c2ccc(F)c(Cl)c2)cc(C)c1C1C(=O)C/C(=C\C2CCOCC2)C1=O (centres unmarked) [Compound T65] | 80% | 70% | 100% | 80% | 90% | 90% | 100% | 100% |
| Cc1cc(C)c(C2=C(OC(=O)Oc3ccccc3)CC(CC3CCOC3)C2=O)c(C)c1 (centres unmarked) [Compound P26] | 100% | 100% | 90% | 80% | 100% | 100% | 100% | 90% |
| Cc1cc(C)c(C2C(=O)C(Cc3ccccc3)C(CC3CCOC3)C2=O)c(C)c1 (centres unmarked) [Compound T151] | 30% | 20% | 40% | 10% | 20% | 30% | 40% | 10% |
| CON1CCC(CC2CC(OC(=O)C(C)(C)C)=C(c3c(C)cc(C)cc3C)C2=O)CC1 (centres unmarked) [Compound P51] | 100% | 100% | 100% | 100% | 100% | 100% | 100% | 100% |
| Cc1cc(C)c(C2=C(OC(=O)c3cccs3)CC(CC3CCN(C(=O)c4cccs4)C3)C2=O)c(C)c1 (centres unmarked) [Compound P61] | 90% | 50% | 80% | 30% | 90% | 90% | 90% | 90% |
